# According to patent US11046679B2, “Indoleamine 2,3-dioxygenase inhibitor and application” (Nanjing TransThera Biosciences Co. Ltd., priority 2017, dated 2021):
# Where two headings read alike, the source gives them in different places.
# Key:
# [1] = system: Hela cell; assay: Hela cell evaluation method (cytological test, rhIFN-γ stimulated); assay type: cell-based; conditions: Hela cells with 50 ng/mL rhIFN-γ, incubated 48 hours, OD at 480 nm
# Method: Hela Cell Evaluation Method
# (§1) Test Sample: Compounds Prepared in the Corresponding Examples of the Present Invention
# Helacell strain (Purchased from ATCC, Cat. No. CCL-2, 4965442)
# Recombinant Human IFN-γ (rhIFN-γ, Purchased from Peprotech, Cat. No. 300-02)
# Cell plating: Hela cell suspension was prepared from fresh MEM cell culture medium, added to a 96-well cell culture plate at 5000 cells/well, and cultured at 5% carbon dioxide at 37° C. overnight.
# Preparation of compound: The compound was formulated into 2 mM in DMSO, and the compound was diluted 5-fold in DMSO to obtain a compound dilution mother solution (200×) of 6 to 9 concentration gradients, and a 10× dilution solution was prepared in proportion with cell culture medium or liquid.
# Dosing incubation: After the cells were plated overnight, 10 μL of the corresponding compound dilution mother solution (10×) and 10 μL of 500 ng/mL rhIFN-γ were added to each well, and the final volume of each well was 100 μL. The negative control wells contained 100 μL of 0.5% DMSO cell culture medium and Hela cells. 50 ng/mL of rhIFN-γ were filled into negative control wells, which are used as positive control. Background control wells contained 100 μL of cell culture medium. Incubation was performed for 48 hours in a 37° C. incubator and cell morphology was observed under an inverted microscope.
# Detection: 80 μL of the supernatant was added to a Corning 3894 plate, and 10 μL of 6.1 N trichloroacetic acid was added to each well. The plate was shaken for 2 minutes, placed in a 50° C. incubator to react for 30 minutes, centrifuged at 2500 rpm for 10 minutes. 70 μL of the supernatant was transferred to a Corning 3635 UV plate, added with 70 μL of the reaction solution and the mixture was shaken for 2 minutes to make the reaction mixture uniform. The OD value at 480 nm was measured using EnSpire (PE).
# [2] = biological target: T1, IDO1 (Homo sapiens, UniProt P14902); assay: IDO1 enzymology evaluation method; assay type: biochemical; conditions: IDO-1 enzyme, dynamic OD at 321 nm, IC50 fitted with GraphPad Prism
# T1 construct: purchased CP lot number: 20160706
# Method: IDO1 Enzymology Evaluation Method
# as §1
# Preparation of compound: The compound was formulated into 1 mM compound mother liquor in DMSO, and the compound was diluted 3-fold in DMSO to obtain a compound concentration dilution mother solution (100×) of 9 concentration gradients.
# Dosing inhibition: 2 μL of 100× compound dilution mother solution was added to a 96-well plate, added with 100 μL of enzyme solution (IDO-1), and incubated for 10 min at room temperature. 100% DMSO was used as a negative control and NLG-919 was used as a positive control. Incubation was performed with 100 μL of substrate mixture (L-tryptophan, ascorbate, methylene blue, and catalase).
# Detection: Dynamic OD data at 321 nm was detected using Spectramax.
# Calculation: The inhibition rate was calculated according to the following formula.
# The curve slope was fitted using the Spectramax program, and IC50 was fitted using GraphPad Prism 5.0.
# [3] = Rat PK evaluation of the compounds; assay type: in vivo; conditions: SD rats; for Cl_obs iv / Vz_obs iv / tz1/2 iv / tZ1/2 PO / bioavailability / AUC(0-inf): n = 3; for tZ1/2 PO: PO (intragastric) 5 mg/kg; for bioavailability / AUC(0-inf) / Tmax: Sprague-Dawley, rat, plasma; for Tmax: n = 3, median
# Method: Example 3: Rat PK Evaluation of the Compounds
# (§2) Animal administration and sample collection: intragastric administration: Compounds 2 and 13 were dissolved in 10% DMA+10% (30% Solutol)+80% physiological saline to prepare a solution. Compound 15 was dissolved in 10% DMA+10% PEG400+80% physiological saline to prepare a solution. The SD rats were intragastrically administered at a dose of 5.0 mg/kg. The time of blood collection was: 15 min, 30 min, 1 h, 2 h, 4 h, 6 h, 8 h and 24 h.
# as §2, with “Intravenous” for “Animal administration and sample collection: intragastric”, “intravenous” for “intragastrically”, “1” for “5.0”, “was: 5 min,” for “was:”
# The animals were fixed, the tail was heated in a water bath 10 min before each time point, and about 100 μL of blood was collected through the tail vein, and the blood was then placed in an anti-coagulation tube containing EDTA-K2. Blood samples were centrifuged at 8000 rpm for 6 min at 4° C. to obtain plasma samples, which must be prepared within 30 min of blood collection. The plasma samples were stored at −80° C. in a freezer before test.
# Take the sample to be tested from the refrigerator (−80° C.), melted at room temperature and vortexed for 5 min. 20 μL of plasma sample was accurately pipetted into a 1.5 mL centrifuge tube; added with 200 μL of internal standard working solution at a concentration of 50 ng/mL and mixed well. The mixture was vortexed for 5 min (12000 rpm) and centrifuge for 5 min (12000 rpm). 50 μL of supernatant was accurately pipetted into 96-well plates pre-filled with 150 μL/well of water; vortexed for 5 min to mix well. The inject volume was 20 μL and LC-MS/MS was performed.
# The concentration of the test sample was output by using Analyst 1.6.3 from AB. The mean, standard deviation, coefficient of variation and other parameters were calculated by Microsoft Excel (direct output from Analyst 1.6.3 is not calculated). PK parameters are calculated by using Pharsight Phoenix 6.1 software NCA (Tmax is the median).
# [4] = IV 1 mg/kg, read-out: AUCinf iv
# [5] = PO 5 mg/kg, read-out: AUCinf PO
# T1 sequence (P14902 whole entry, species assumed): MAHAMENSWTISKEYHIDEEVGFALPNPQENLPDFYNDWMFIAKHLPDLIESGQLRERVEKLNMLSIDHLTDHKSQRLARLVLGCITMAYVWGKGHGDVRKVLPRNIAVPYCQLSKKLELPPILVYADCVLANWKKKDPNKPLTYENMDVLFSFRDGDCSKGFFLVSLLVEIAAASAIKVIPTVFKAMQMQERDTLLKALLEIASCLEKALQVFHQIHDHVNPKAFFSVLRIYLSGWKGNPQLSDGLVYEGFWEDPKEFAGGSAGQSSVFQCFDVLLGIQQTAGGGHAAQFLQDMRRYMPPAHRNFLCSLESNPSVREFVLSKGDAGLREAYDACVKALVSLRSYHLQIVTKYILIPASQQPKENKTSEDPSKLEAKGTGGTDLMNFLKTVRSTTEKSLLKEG
compound,measurement,setting,value
"O=S1(=O)CCC(Nc2nonc2C(=NO)Nc2ccc(F)c(Br)c2)C1 (single isomer, unassigned) [Compound 15-P1]",IC50,[1],19.4 nM
same,IC50,[2],200 nM
"CS(=O)(=O)N1CC2(CC(Nc3nonc3C(=NO)Nc3ccc(F)c(Br)c3)C2)C1 [Compound 16, N-(3-bromo-4-fluorophenyl)-N′-hydroxy-4-((2-(methylsulfonyl)-2-azaspiro[3.3]heptan-6-yl)amino)-1,2,5-oxadiazol-3-formamidine]",IC50,"[1]; Homo sapiens, HeLa, 48 h",78.3 nM
same,IC50,[2],170 nM
"CS(=O)(=O)N1CCC(Nc2nonc2C(=NO)Nc2ccc(F)c(Br)c2)CC1 [Compound 3, N-(3-bromo-4-fluorophenyl)-N′-hydroxy-4-((1-(methylsulfonyl)piperidin-4-yl)amino)-1,2,5-oxadiazol-3-formamidine]",IC50,"[1]; Homo sapiens, HeLa, 48 h",71 nM
"ON=C(Nc1ccc(F)c(Br)c1)c1nonc1NC1CCOCC1 [Compound 1, N-(3-bromo-4-fluorophenyl)-N′-hydroxy-4-((tetrahydro-2H-pyran-4-yl)amino)-1,2,5-oxadiazol-3-formamidine]",IC50,"[1]; Homo sapiens, HeLa, 48 h",109 nM
"O=S1(=O)CC(Nc2nonc2C(=NO)Nc2ccc(F)c(Br)c2)C1 [Compound 26, N-(3-bromo-4-fluorophenyl)-4-((1,1-dioxothietan-3-yl)amino)-N′-hydroxy-1,2,5-oxadiazol-3-formamidine]",IC50,"[1]; Homo sapiens, HeLa, 48 h",76 nM
"ON=C(Nc1ccc(F)c(Br)c1)c1nonc1NC1CC2(COC2)C1 [Compound 12, 4-((2-oxaspiro[3.3]heptan-6-yl)amino)-N-(3-bromo-4-fluorophenyl)-N′-hydroxy-1,2,5-oxadiazol-3-carboxamidine]",IC50,"[1]; Homo sapiens, HeLa, 48 h",105 nM
"O=S1(=O)CCC(Nc2nonc2C(=NO)Nc2ccc(F)c(Br)c2)CC1 [Compound 2, N-(3-bromo-4-fluorophenyl)-4-((1,1-dioxotetrahydro-2H-thiopyran-4-yl)amino)-N′-hydroxy-1,2,5-oxadiazol-3-formamidine]",Cl_obs iv,[3]; IV 1 mg/kg,32.8 mL/min/kg
same,Vz_obs iv,[3]; IV 1 mg/kg,5.02 L/kg
same,tz1/2 iv,[3]; IV 1 mg/kg,1.82 h
same,tZ1/2 PO,[3],3.81 h
same,bioavailability,"[3]; IV 1 mg/kg, PO 5 mg/kg",62.2%
same,AUC(0-inf),[3]; [4],521 ng·h/mL
same,Tmax,[3]; PO 5 mg/kg,15 min
same,AUC(0-inf),[3]; [5],1620 ng·h/mL
same,IC50,"[1]; Homo sapiens, HeLa, 48 h",39.7 nM
"O=S1(=O)CC2(CC(Nc3nonc3C(=NO)Nc3ccc(F)c(Br)c3)C2)C1 [Compound 13, N-(3-bromo-4-fluorophenyl)-4-((2,2-dioxo-2-thiaspiro[3.3]heptan-6-yl)amino)-N′-hydroxy-1,2,5-oxadiazol-3-formamidine]",Cl_obs iv,[3]; IV 1 mg/kg,53.3 mL/min/kg
same,Vz_obs iv,[3]; IV 1 mg/kg,9.00 L/kg
same,tz1/2 iv,[3]; IV 1 mg/kg,2.00 h
same,tZ1/2 PO,[3],1.67 h
same,bioavailability,"[3]; IV 1 mg/kg, PO 5 mg/kg",36.9%
same,AUC(0-inf),[3]; [4],336 ng·h/mL
same,Tmax,[3]; PO 5 mg/kg,15 min
same,AUC(0-inf),[3]; [5],620 ng·h/mL
same,IC50,"[1]; Homo sapiens, HeLa, 48 h",68.6 nM
same,IC50,[2],220 nM
"O=S1(=O)CCC(Nc2nonc2C(=NO)Nc2ccc(F)c(Br)c2)C1 (single isomer, unassigned) [Compound 15-P2]",IC50,[1],119 nM
same,IC50,[2],240 nM
NS(=O)(=O)N1CCC(Nc2nonc2C(=NO)Nc2ccc(F)c(Br)c2)CC1 [Compound 4],IC50,"[1]; Homo sapiens, HeLa, 48 h",78.8 nM
"O=S1(=O)CCC(Nc2nonc2C(=NO)Nc2ccc(F)c(Br)c2)C1 (stereo not shown) [Compound 15, N-(3-bromo-4-fluorophenyl)-4-((1,1-dioxo-tetrahydrothiophen-3-yl)amino)-N′-hydroxy-1,2,5-oxadiazol-3-formamidine]",Cl_obs iv,[3]; IV 1 mg/kg,45.5 mL/min/kg
same,Vz_obs iv,[3]; IV 1 mg/kg,4.03 L/kg
same,tz1/2 iv,[3]; IV 1 mg/kg,1.03 h
same,tZ1/2 PO,[3],3.40 h
same,bioavailability,"[3]; IV 1 mg/kg, PO 5 mg/kg",28.1%
same,AUC(0-inf),[3]; [4],367 ng·h/mL
same,Tmax,[3]; PO 5 mg/kg,60 min
same,AUC(0-inf),[3]; [5],516 ng·h/mL
same,IC50,"[1]; Homo sapiens, HeLa, 48 h",51.6 nM
same,IC50,[2],220 nM
